# Where a name gives a salt, the structure may show the parent alone.
# Key:
# CYP3A4 = target: T1, CYP3A4 (Homo sapiens, UniProt P08684); assay: CYP3A4 inhibition (midazolam oxidation to 1'-hydroxymidazolam); type: in vitro ADME; settings: E. coli expressed 3A4 membranes, midazolam 2.5 μM; read-out: IC50 CYP3A4 (estimated)
# T1 construct: purchased Cypex (Dundee, UK); host or cells: E. coli (membranes)
# Description: The ability of certain compounds to inhibit CYP3A4 in membranes was determined from the inhibition of midazolam oxidation to 1′-hydroxy midazolam. […] Employing an automated assay (full IC50) using the Automation Platform, up to thirteen compounds were run per plate as well as ketoconazole as a standard inhibitor of CYP3A4.
# The incubations were carried out in 0.1 M phosphate buffer (pH 7.4 at 37° C.) containing DMSO (1%), midazolam (2.5 μM), phenacetin (25.7 μM), diclofenac (1.8 μM), S-mephenyloin (30.5 μM), bufuralol (8.8 μM), NADPH (1 mM), E. coli expressed 3A4 membranes (5 pmol/ml), 1A2 membranes (25 pmol/ml), 2C9 membranes (5 pmol/ml), 2C19 membranes (2.5 pmol/ml), 2D6 membranes (5 pmol/ml), and the test inhibitors ketoconazole, α-napthoflavone, sulphaphenazole, tranylcypromine and quinidine. […]
# The assay was run on a robotic sample processor. […] The samples were centrifuged, transferred to a clean plate and analysed by LC MS/MS, which was conducted using an Applied Biosystems-Sciex API4000 mass spectrometer, with Agilent HP1100 binary solvent delivery pumps, and CTC HTS-PAL autosampler. […] The formation of product (1′-hydroxymidazolam) was monitored. […]
# Rates of reaction were calculated for each reaction by measuring MS/MS area units. […]
# The degree of inhibition of CYP3A4 was calculated and expressed as an IC50 value. […]
# [1] = system: N-terminal propeptide of type I procollagen (P1NP); assay: Bone biomarker evaluation: serum P1NP assay; type: in vivo, rat; settings: oral once a day, 7 consecutive days, female CRL:CD rats
# Description: For in vitro osteogenesis, human adipose-derived stem cells (hADSC) (Invitrogen, UK; catalogue number R7788-115) were seeded into 12-well plates at a density of 5000 cells/cm^2 and were cultured in a basal media of phenol red-free Dulbecco's Modified Eagles Medium (DMEM; Sigma-Aldrich, UK; catalogue number D1145) supplemented with 5% fetal bovine serum (FBS, Gibco, UK; catalogue number 10270) and 2 mM GlutaMax® (Gibco; catalogue number 35050). […] The formation of mineralized bone nodules was assessed during the time-course using Alizarin Red S staining. […] The amount of mineralisation was quantified through the extraction of the Alizarin Red S stain from bone nodules using a cetylpyridinium chloride extraction method, previously described (Gregory et al., Analytical Biochemistry, 2004, 329: 77-84; Hwang et al., Stem Cells and Development 17: 963-970, 2008). […] Following incubation, 200 μl aliquots were transferred to 96-well format and the absorbance at 550 nm was determined using a microplate spectrophotometer (SpectraMax Plus, Molecular Devices, USA). Data were expressed as mean absorbance at 550 nm±Standard error of mean (SEM). […] Data are shown as mean absorbance at 550 nm and analysed using one-way ANOVA followed by Tukey's multiple comparison post hoc test: n=9; ***, P<0.001. […]
# T1 sequence (P08684 whole entry): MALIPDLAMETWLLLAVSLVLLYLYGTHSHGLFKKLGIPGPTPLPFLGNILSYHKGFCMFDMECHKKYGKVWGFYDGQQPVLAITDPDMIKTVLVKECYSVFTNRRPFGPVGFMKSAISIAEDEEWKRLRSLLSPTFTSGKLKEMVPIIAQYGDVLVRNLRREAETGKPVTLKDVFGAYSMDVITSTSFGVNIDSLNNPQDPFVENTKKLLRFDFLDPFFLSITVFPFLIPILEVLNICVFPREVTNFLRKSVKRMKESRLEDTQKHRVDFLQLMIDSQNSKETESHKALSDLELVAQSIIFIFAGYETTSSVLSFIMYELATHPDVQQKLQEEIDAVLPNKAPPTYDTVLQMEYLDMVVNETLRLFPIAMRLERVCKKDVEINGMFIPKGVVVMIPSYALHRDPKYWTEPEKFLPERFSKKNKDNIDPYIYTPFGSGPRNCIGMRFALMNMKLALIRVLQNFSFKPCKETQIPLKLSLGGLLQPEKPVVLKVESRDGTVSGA
smiles,measurement,setting,value
"COCCCNCCCc1ccc(-c2cnc(N)c(C(=O)Nc3cccnc3)n2)cc1 [Example 1, 3-Amino-6-(4-{3-[(3-methoxypropyl)amino]propyl}phenyl)-N-pyridin-3-ylpyrazine-2-carboxamide tri-hydrochloride]",IC50,CYP3A4,> 50 µM
same,Serum P1NP levels (marker of bone formation),[1],increase in serum P1NP levels

# Reference: patent US8198285B2, “Pyrazine derivatives” (Astrazeneca AB, priority 2010, dated 2012)
